The record followed here is ChEMBL document CHEMBL6134818, “Development of 3-arylaminothiophenic-2-carboxylic acid derivatives as new FTO inhibitors showing potent antileukemia activities” (Eur J Med Chem, 2025).

Assay [1] deals with NB-4. Briefly: Anti-proliferative activity against human NB4 cells assessed as inhibition of cell viability incubated for 72 hrs by CCK8 assay. Particulars: NB-4, 72 h. It counts as functional, cell-based.
Assay [2] deals with MOLM-13. Briefly: Anti-proliferative activity against human MOLM-13 cells assessed as inhibition of cell viability incubated for 72 hrs by CCK8 assay. It counts as functional, cell-based. To be noted: MOLM-13, 72 h.
Assay [3] has as its target Alpha-ketoglutarate-dependent dioxygenase FTO (Homo sapiens, UniProt Q9C0B1). Briefly: Inhibition of N-terminal truncated FTO demethylation (unknown origin) using 5'-ATTGCCATTCTCGATAGG(dm6A)TCCGGTCAAACCTAGACGAA-3' ssDNA template incubated for 2 hrs by PAGE-based assay.

Chain of Alpha-ketoglutarate-dependent dioxygenase FTO (Q9C0B1 whole entry, the tested form may be a part): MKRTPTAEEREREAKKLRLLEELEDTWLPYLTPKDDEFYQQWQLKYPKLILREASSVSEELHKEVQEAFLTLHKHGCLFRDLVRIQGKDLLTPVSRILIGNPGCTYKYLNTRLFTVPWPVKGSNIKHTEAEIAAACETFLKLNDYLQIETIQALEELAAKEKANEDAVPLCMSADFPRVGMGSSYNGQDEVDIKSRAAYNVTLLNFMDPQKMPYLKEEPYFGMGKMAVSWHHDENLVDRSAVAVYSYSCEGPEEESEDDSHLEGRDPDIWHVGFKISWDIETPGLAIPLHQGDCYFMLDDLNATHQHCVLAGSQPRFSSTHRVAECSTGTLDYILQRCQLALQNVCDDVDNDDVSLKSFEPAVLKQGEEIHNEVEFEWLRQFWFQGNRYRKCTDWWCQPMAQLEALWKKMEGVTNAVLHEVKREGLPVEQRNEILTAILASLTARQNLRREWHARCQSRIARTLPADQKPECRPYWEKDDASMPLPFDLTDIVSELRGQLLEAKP

For `Cc1n[nH]c(C)c1-c1cc(C2CC2)c(Nc2ccsc2C(=O)NO)c(C2CC2)c1`, the half-maximal inhibitory concentration (IC50) in assay [1] and in assay [2] was 300 nM in each case.
Consider `Cc1n[nH]c(C)c1-c1cc(C2CC2)c(Nc2ccsc2C(=O)NC#N)c(C2CC2)c1`, for which the IC50 in assay [3] was 270 nM.
Compound `Cc1n[nH]c(C)c1-c1cc(Cl)c(Nc2ccsc2C(=O)O)c(Cl)c1` registered an IC50 in assay [3] of 680 nM.
